Reference: US9415055B2, “Cyclic amines” (H. Lundbeck A/S, priority 2012, dated 2016)

These compounds were tested against P2X7 receptor (Homo sapiens (Human), UniProt Q99572) (assay: P2X7 FLIPR assay: antagonism of BzATP response in 293 HEK cells stably expressing P2X7 receptor). Conditions: FLIPR fluorescence (Fluo-4), agonist BzATP, 293 HEK cells stably transfected with P2X7 receptor.
Assay type: cell-based
Experimental: Cells were plated to cell density of approximately 15,000 cells/well in 384-well assay plates (50 μl/well) with 1.5% low serum media (DMEM, 1.5% BCS, 1% L-glut (2 mM), 1% P/S).
Cells were plated to cell density of approximately 15,000 cells/well in 384-well assay plates (50 μl/well) with 1.5% low serum media (DMEM, 1.5% FBS, 1% L-glut (2 mM), 10 mM HEPES, 1% P/S). Cells were plated 24 hours prior to assay. Cells expressing human, rat or mouse P2X7 receptor were assayed in the following manner.
Fluo-4 NW dye mix (Molecular Probes, Inc., Eugene, Oreg., USA) was prepared in buffer (see manufacturer's instructions). Cell plates were removed from the 37° C. incubator, the media discarded and then 30 μL of dye was added to each well. Plates were placed in the 37° C., non-CO2 incubator for 30 minutes and then room temperature for 30 minutes.
Compound mixtures (A) were added to assay plates containing cells and placed at room temperature for 30 minutes, then BzATP (B) was added. Fluorescence was read using the Tetra FLIPR® (Molecular Devices, Inc., Sunnyvale, Calif., USA) and IC50 values were calculated by standard methods to determine antagonist activity.

Sequence of P2X7 receptor (Q99572 whole entry): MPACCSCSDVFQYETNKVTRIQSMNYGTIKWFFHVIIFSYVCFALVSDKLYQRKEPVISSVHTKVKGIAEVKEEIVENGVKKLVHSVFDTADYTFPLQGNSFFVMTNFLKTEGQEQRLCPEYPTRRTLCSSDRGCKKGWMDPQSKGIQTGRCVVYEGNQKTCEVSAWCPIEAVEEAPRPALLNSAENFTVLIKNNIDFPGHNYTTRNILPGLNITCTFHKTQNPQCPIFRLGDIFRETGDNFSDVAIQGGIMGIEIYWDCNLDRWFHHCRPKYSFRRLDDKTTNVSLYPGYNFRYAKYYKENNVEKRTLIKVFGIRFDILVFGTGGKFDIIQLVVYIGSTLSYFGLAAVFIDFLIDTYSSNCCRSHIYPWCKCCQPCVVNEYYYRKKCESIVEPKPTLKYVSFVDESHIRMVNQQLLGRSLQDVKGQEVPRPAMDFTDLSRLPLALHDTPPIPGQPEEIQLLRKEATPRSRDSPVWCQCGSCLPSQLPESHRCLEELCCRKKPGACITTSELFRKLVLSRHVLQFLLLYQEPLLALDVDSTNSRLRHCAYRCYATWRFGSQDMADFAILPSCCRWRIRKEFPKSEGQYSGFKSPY

Row | IC50 [nM] | Compound
1 | 14 | Cc1ncc(C(CNC(=O)c2cccc(Cl)c2Cl)N2CCCC(F)(F)C2)cn1 (single isomer, unassigned; (+)) [(+2,3-dichloro-N-(2-(3,3-difluoropiperidin-1-yl)-2-(2-methylpyrimidin-5-yl)ethyl)benzamide]
2 | 44 | Cc1ccc(C(CNC(=O)c2cccc(Cl)c2Cl)N2CCOCC2)cn1 (single isomer, unassigned; (+)) [(+)2,3-Dichloro-N-[2-(6-methyl-3-pyridyl)-2-morpholino-ethyl]benzamide]
3 | 4.3 | O=C(NCC(c1cnc(C2CC2)nc1)N1CCC(F)(F)CC1)c1cccc(Cl)c1Cl (single isomer, unassigned; (+)) [(+)2,3-dichloro-N-[2-(2-cyclopropylpyrimidin-5-yl)-2-(4,4-di] [(+)2,3-dichloro-N-(2-(2-cyclopropylpyrimidin-5-yl)-2-(4,4-difluoropiperidin-1-yl)ethyl)benzamide]
4 | 8.9 | Cc1ncc(C(CNC(=O)c2cccc(Cl)c2Cl)N2CCCCC2)cn1 (single isomer, unassigned; (+)) [(+)2,3-dichloro-N-[2-(2-methylpyrimidin-5-yl)-2-(1-piperidyl] [(+2,3-dichloro-N-(2-(2-methylpyrimidin-5-yl)-2-(piperidin-1-yl)ethyl)benzamide]
5 | 69 | Cc1ncc(C(CNC(=O)c2cccc(Cl)c2Cl)N2CCOCC2)cn1 (single isomer, unassigned; (+)) [(+)2,3-dichloro-N-[2-(2-methylpyrimidin-5-yl)-2-morpholino-e] [(+)2,3-Dichloro-N-[2-(2-methylpyrimidin-5-yl)-2-morpholino-ethyl]benzamide]
6 | 34 | Cn1cc(C(CNC(=O)c2cc(F)cc(Cl)c2Cl)N2CCC(F)(F)CC2)cn1 (single isomer, unassigned; (+)) [(+)2,3-dichloro-N-[2-(4,4-difluoro-1-piperidyl)-2-(1-methylp] [(+)2,3-dichloro-5-fluoro-N-(2-(4,4-difluoropiperidin-1-yl)-2-(1-methyl-1H-pyrazol-4-yl)ethyl)benzamide]
7 | 12 | Cn1cc(C(CNC(=O)c2cccc(Cl)c2Cl)N2CCC(F)(F)CC2)cn1 (single isomer, unassigned; (+)) [(+)2,3-dichloro-N-[2-(4,4-difluoro-1-piperidyl)-2-(1-methylp] [(+)2,3-dichloro-N-(2-(4,4-difluoropiperidin-1-yl)-2-(1-methyl-1H-pyrazol-4-yl)ethyl)benzamide]
8 | 2.6 | CCc1ncc(C(CNC(=O)c2cccc(Cl)c2Cl)N2CCC(F)(F)CC2)cn1 (single isomer, unassigned; (+)) [(+)2,3-dichloro-N-[2-(4,4-difluoro-1-piperidyl)-2-(2-ethylpy] [(+2,3-dichloro-N-(2-(4,4-difluoropiperidin-1-yl)-2-(2-ethylpyrimidin-5-yl)ethyl)benzamide]
9 | 5.1 | Cc1ncc(C(CNC(=O)c2cc(F)cc(Cl)c2Cl)N2CCC(F)(F)CC2)cn1 (single isomer, unassigned; (+)) [(+)2,3-dichloro-N-[2-(4,4-difluoro-1-piperidyl)-2-(2-methylp] [(+)2,3-dichloro-5-fluoro-N-(2-(4,4-difluoropiperidin-1-yl)-2-(2-methylpyrimidin-5-yl)ethyl)benzamide]
10 | 3.2 | Cc1ncc(C(CNC(=O)c2cccc(Cl)c2Cl)N2CCC(F)(F)CC2)cn1 (single isomer, unassigned; (+)) [(+)2,3-dichloro-N-[2-(4,4-difluoro-1-piperidyl)-2-(2-methylp] [(+)2,3-dichloro-N-(2-(4,4-difluoropiperidin-1-yl)-2-(2-methylpyrimidin-5-yl)ethyl)benzamide]
11 | 4.9 | O=C(NCC(c1cnc(C(F)(F)F)nc1)N1CCC(F)(F)CC1)c1cc(F)cc(Cl)c1Cl (single isomer, unassigned; (+)) [(+)2,3-dichloro-N-[2-(4,4-difluoro-1-piperidyl)-2-[2-(triflu] [(+)2,3-dichloro-5-fluoro-N-(2-(4,4-difluoropiperidin-1-yl)-2-(2-(trifluoromethyl)pyrimidin-5-yl)ethyl)benzamide]
12 | 6.5 | Cc1ncc(C(CNC(=O)c2cccc(Cl)c2Cl)N2CCC(F)CC2)cn1 (single isomer, unassigned; (+)) [(+)2,3-dichloro-N-[2-(4-fluoro-1-piperidyl)-2-(2-methylpyrim] [(+2,3-dichloro-N-(2-(4-fluoropiperidin-1-yl)-2-(2-methylpyrimidin-5-yl)ethyl)benzamide]
13 | 3.5 | O=C(NCC(c1cnc(C(F)(F)F)nc1)N1CCC(F)CC1)c1cccc(Cl)c1Cl (single isomer, unassigned; (+)) [(+)2,3-dichloro-N-[2-(4-fluoro-1-piperidyl)-2-[2-(trifluorom] [(+)2,3-dichloro-N-(2-(4-fluoropiperidin-1-yl)-2-(2-(trifluoromethyl)pyrimidin-5-yl)ethyl)benzamide]
14 | 3.9 | O=C(NCC(c1cnc(C(F)F)nc1)N1CCOCC1)c1cccc(Cl)c1Cl (single isomer, unassigned; (+)) [(+)2,3-dichloro-N-[2-[2-(difluoromethyl)pyrimidin-5-yl]-2-mo] [(+)2,3-dichloro-N-(2-(2-(difluoromethyl)pyrimidin-5-yl)-2-morpholinoethyl)benzamide]
15 | 2.4 | O=C(NCC(c1ccc(C(F)F)nc1)N1CCC(F)(F)CC1)c1cccc(Cl)c1Cl (single isomer, unassigned; (+)) [(+)2,3-dichloro-N-[2-[6-(difluoromethyl)-3-pyridyl]-2-(4,4-d] [(+)2,3-dichloro-N-(2-(2-(difluoromethyl)pyridin-5-yl)-2-(4,4-difluoropiperidin-1-yl)ethyl)benzamide]
16 | 4.8 | O=C(NCC(c1cnc(C(F)(F)F)nc1)N1CCOCC1)c1cccc(Cl)c1Cl (single isomer, unassigned; (+)) [(+)2,3-dichloro-N-[2-morpholino-2-[2-(trifluoromethyl)pyrimi] [(+)2,3-Dichloro-N-[2-morpholino-2-[2-(trifluoromethyl)pyrimidin-5-yl]ethyl]benzamide]
17 | 5.5 | O=C(NCC(c1ccc(C(F)(F)F)nc1)N1CCOCC1)c1cccc(Cl)c1Cl (single isomer, unassigned; (+)) [(+)2,3-dichloro-N-[2-morpholino-2-[6-(trifluoromethyl)-3-pyr] [(+)2,3-Dichloro-N-[2-morpholino-2-[6-(trifluoromethyl)-3-pyridyl]ethyl]benzamide]
18 | 4.7 | O=C(NCC(c1cnc(C(F)(F)F)nc1)N1CCC(F)(F)CC1)c1c(F)cc(Cl)cc1Cl (single isomer, unassigned; (+)) [(+)2,4-dichloro-N-[2-(4,4-difluoro-1-piperidyl)-2-[2-(triflu] [(+)2,4-dichloro-6-fluoro-N-(2-(4,4-difluoropiperidin-1-yl)-2-(2-(trifluoromethyl)pyrimidin-5-yl)ethyl)benzamide]
19 | 5.6 | O=C(NCC(c1cnc(C(F)(F)F)nc1)N1CCC(F)(F)CC1)c1ccc(Cl)cc1Cl (single isomer, unassigned; (+)) [(+)2,4-dichloro-N-[2-(4,4-difluoro-1-piperidyl)-2-[2-(triflu] [(+)2,4-dichloro-N-(2-(4,4-difluoropiperidin-1-yl)-2-(2-(trifluoromethyl)pyrimidin-5-yl)ethyl)benzamide]
20 | 5.3 | O=C(NCC(c1cnc(C2CC2)nc1)N1CCC(F)(F)CC1)c1c(Cl)cccc1Cl (single isomer, unassigned; (+)) [(+)2,6-dichloro-N-(2-(2-cyclopropylpyrimidin-5-yl)-2-(4,4-difluoropiperidin-1-yl)ethyl)benzamide]
21 | 56 | Cn1cc(C(CNC(=O)c2c(Cl)cccc2Cl)N2CCC(F)(F)CC2)cn1 (single isomer, unassigned; (+)) [(+)2,6-dichloro-N-[2-(4,4-difluoro-1-piperidyl)-2-(1-methylp] [(+)2,6-dichloro-N-(2-(4,4-difluoropiperidin-1-yl)-2-(1-methyl-1H-pyrazol-4-yl)ethyl)benzamide]
22 | 15 | CCc1ncc(C(CNC(=O)c2c(Cl)cccc2Cl)N2CCC(F)(F)CC2)cn1 (single isomer, unassigned; (+)) [(+)2,6-dichloro-N-[2-(4,4-difluoro-1-piperidyl)-2-(2-ethylpy] [(+2,6-dichloro-N-(2-(4,4-difluoropiperidin-1-yl)-2-(2-ethylpyrimidin-5-yl)ethyl)benzamide]
23 | 25 | Cc1ncc(C(CNC(=O)c2c(Cl)ccc(F)c2Cl)N2CCC(F)(F)CC2)cn1 (single isomer, unassigned; (+)) [(+)2,6-dichloro-N-[2-(4,4-difluoro-1-piperidyl)-2-(2-methylp] [(+)2,6-dichloro-5-fluoro-N-(2-(4,4-difluoropiperidin-1-yl)-2-(2-methylpyrimidin-5-yl)ethyl)benzamide]
24 | 19 | Cc1ncc(C(CNC(=O)c2c(Cl)cccc2Cl)N2CCC(F)(F)CC2)cn1 (single isomer, unassigned; (+)) [(+)2,6-dichloro-N-[2-(4,4-difluoro-1-piperidyl)-2-(2-methylp] [(+)2,6-dichloro-N-(2-(4,4-difluoropiperidin-1-yl)-2-(2-methylpyrimidin-5-yl)ethyl)benzamide]
